Patent US20240182481A1 (Tango Therapeutics, Inc., priority 2021, published 2024)

Key:
USP1-UAF1 = USP1-UAF1 (Homo sapiens, UniProt O94782); assay: Ubiquitin Rhodamine assay for USP1-UAF1 activity; format: biochemical
Description: Certain compounds of the disclosure were assessed for USP1-UAF1 activity in a Ubiquitin Rhodamine assay as described in Example 135.

[1] = system: MDA-MB-436 (BRCA1 mutant) cell line; assay: Viability assay in BRCA1 mutant cell line MDA-MB-436; format: cell-based; details: Homo sapiens, MDA-MB-436, viability, BRCA1 mutant MDA-MB-436; read-out: MDA-MB-436 rel IC50
Excerpt: (§1) Table 1 also indicates IC50 values in a viability assay for a non-isogenic pair of BRCA1 mutant (column 5—MDA-MB-436) and BRCA1 WT (column 6—HCC1954) cell lines. These values indicate the effect of treatment with compound on cell survival.

[2] = system: HCC1954 (BRCA1 WT) cell line; assay: Viability assay in BRCA1 WT cell line HCC1954; format: cell-based; details: Homo sapiens, read-out: HCC 1954 IC50 rel IC50
Excerpt: as §1

monoubiquitinated PCNA = assay: AlphaLISA assay measuring monoubiquitinated PCNA in MDA-MB-436; format: cell-based; details: Homo sapiens, read-out: Alpha LISA IC50
Excerpt: Table 1 also indicates IC50 values for exemplary compounds in an AlphaLISA assay measuring monoubiquitinated PCNA in a BRCA1 mutant cell line (MDA-MB-436; column 7).

Chain of USP1-UAF1 (O94782 whole entry): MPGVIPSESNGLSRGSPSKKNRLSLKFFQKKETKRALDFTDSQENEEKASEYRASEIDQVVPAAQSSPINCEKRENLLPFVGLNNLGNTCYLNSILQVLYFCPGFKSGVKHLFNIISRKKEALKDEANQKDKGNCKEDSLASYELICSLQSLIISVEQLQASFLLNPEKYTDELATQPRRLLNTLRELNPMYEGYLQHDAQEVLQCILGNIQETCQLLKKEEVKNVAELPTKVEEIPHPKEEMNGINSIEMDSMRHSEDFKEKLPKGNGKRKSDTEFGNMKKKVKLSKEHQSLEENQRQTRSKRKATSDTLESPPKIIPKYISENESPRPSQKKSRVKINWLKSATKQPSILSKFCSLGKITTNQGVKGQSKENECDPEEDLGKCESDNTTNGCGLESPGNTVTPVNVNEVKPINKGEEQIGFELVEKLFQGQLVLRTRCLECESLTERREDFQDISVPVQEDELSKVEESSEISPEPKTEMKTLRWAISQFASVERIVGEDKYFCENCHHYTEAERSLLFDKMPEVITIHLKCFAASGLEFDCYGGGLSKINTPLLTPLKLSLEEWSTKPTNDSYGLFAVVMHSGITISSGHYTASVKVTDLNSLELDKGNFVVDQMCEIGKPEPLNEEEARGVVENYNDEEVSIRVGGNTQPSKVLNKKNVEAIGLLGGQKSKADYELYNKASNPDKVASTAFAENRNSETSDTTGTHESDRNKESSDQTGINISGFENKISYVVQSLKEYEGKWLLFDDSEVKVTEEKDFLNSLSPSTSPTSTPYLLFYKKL
Chain of USP1-UAF1 (Q8TAF3 whole entry partner): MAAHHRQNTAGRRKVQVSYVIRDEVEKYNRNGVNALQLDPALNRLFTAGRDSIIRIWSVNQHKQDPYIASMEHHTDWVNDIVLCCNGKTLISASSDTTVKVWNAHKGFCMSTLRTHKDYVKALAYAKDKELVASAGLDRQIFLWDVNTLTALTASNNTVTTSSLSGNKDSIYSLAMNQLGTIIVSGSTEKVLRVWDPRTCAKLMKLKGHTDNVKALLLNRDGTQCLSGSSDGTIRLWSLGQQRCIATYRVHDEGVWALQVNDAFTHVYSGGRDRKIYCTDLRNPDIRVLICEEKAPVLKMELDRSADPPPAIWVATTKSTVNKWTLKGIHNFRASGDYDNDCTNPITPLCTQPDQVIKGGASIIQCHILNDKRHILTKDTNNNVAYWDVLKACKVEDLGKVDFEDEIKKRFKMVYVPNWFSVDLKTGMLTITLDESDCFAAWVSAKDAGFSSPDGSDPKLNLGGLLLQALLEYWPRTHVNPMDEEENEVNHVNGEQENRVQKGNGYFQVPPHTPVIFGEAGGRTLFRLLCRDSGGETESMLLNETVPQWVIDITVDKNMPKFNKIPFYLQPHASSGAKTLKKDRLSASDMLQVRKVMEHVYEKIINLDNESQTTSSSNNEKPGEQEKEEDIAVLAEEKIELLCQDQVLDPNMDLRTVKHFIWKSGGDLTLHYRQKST

Structure (SMILES)	IC50 (USP1-UAF1) [nM]	IC50 [1] [nM]	IC50 [2] [nM]	IC50 (monoubiquitinated PCNA) [nM]
Cn1cc(C(F)(F)F)nc1-c1ccc(Cc2n[nH]c3cnc(-c4c(C5CC5)ncnc4C4CC4)nc23)cc1 [Compound 183, 5-(4,6-dicyclopropylpyrimidin-5-yl)-3-[[4-[1-methyl-4-(trifluoromethyl)imidazol-2-yl]phenyl]methyl]-1H-pyrazolo[4,3-d]pyrimidine]	< 30	< 100	≥ 10000	< 100
COc1ncnc(OC)c1-c1ncc2[nH]cc(Cc3ccc(-c4nc(C(F)(F)F)cn4C(C)C)cc3)c2n1 [Compound 182]	30 to 100	100 to 250	≥ 10000	< 100
COc1ncccc1-c1ncc2[nH]cc(Cc3ccc(-c4nc(C(F)(F)F)cn4C)cc3)c2n1 [Compound 11, 2-(2-methoxy-3-pyridyl)-7-[[4-[1-methyl-4-(trifluoromethyl)imidazol-2-yl]phenyl]methyl]-5H-pyrrolo[3,2-d]pyrimidine]	30 to 100	250 to 10000	≥ 10000	100 to 250
[2H]C([2H])([2H])n1cc(C(F)(F)F)nc1-c1ccc(Cc2n[nH]c3cnc(-c4c(OC)ncnc4C4CC4)nc23)cc1 [Compound 97, 5-(4-cyclopropyl-6-methoxy-pyrimidin-5-yl)-3-[[4-[1-(trideuteriomethyl)-4-(trifluoromethyl)imidazol-2-yl]phenyl]methyl]-1H-pyrazolo[4,3-d]pyrimidine]	< 30	< 100	≥ 10000	< 100
Cn1cc(C(F)(F)F)nc1-c1ccc([C@@](C)(O)c2c[nH]c3cnc(-c4cccnc4OCC(F)(F)F)nc23)cc1 (single isomer, unassigned) [Compound 74]	< 30	250 to 10000	250 to 10000	100 to 250
COc1ncnc(C2CC2)c1-c1ncc2[nH]c(C)c(C(O)c3ccc(-c4nc(C(F)(F)F)cn4C)cc3)c2n1 (centres unmarked) [Compound 207, [2-(4-cyclopropyl-6-methoxy-pyrimidin-5-yl)-6-methyl-5H-pyrrolo[3,2-d]pyrimidin-7-yl]-[4-[1-methyl-4-(trifluoromethyl)imidazol-2-yl]phenyl]methanol]	100 to 10000	250 to 10000	≥ 10000	250 to 10000
CCn1cc(C(F)(F)F)nc1-c1ccc(Cc2n[nH]c3cnc(-c4c(OC)ncnc4C4CC4)nc23)cc1 [Compound 165, 5-(4-cyclopropyl-6-methoxypyrimidin-5-yl)-3-(4-(1-ethyl-4-(trifluoromethyl)-1H-imidazol-2-yl)benzyl)-1H-pyrazolo[4,3-d]pyrimidine]	< 30	< 100	≥ 10000	< 100
COc1ncnc(C2CC2)c1-c1ncc2[nH]cc(Cc3cc(F)c(-n4nc(C(F)(F)F)cc4C)c(F)c3)c2n1 [Compound 162, 2-(4-cyclopropyl-6-methoxy-pyrimidin-5-yl)-7-[[3,5-difluoro-4-[5-methyl-3-(trifluoromethyl)pyrazol-1-yl]phenyl]methyl]-5H-pyrrolo[3,2-d]pyrimidine]	< 30	< 100	≥ 10000	< 100
COc1ncnc(C2CC2)c1-c1ncc2[nH]nc(Cc3ccc(-c4nc(C(F)(F)F)cn4C)cc3C)c2n1 [Compound 196]	< 30	< 100	≥ 10000	< 100
COc1ccnc(C2CC2)c1-c1ncc2[nH]nc(Cc3ccc(-c4nc(C(F)(F)F)cn4C)cc3)c2n1 [Compound 116]	< 30	< 100	≥ 10000	100 to 250
COCCn1cc(Cc2ccc(-c3nc(C(F)(F)F)cn3C)cc2)c2nc(-c3c(OC)ncnc3C3CC3)ncc21 [Compound 200, 2-(4-cyclopropyl-6-methoxy-pyrimidin-5-yl)-5-(2-methoxyethyl)-7-[[4-[1-methyl-4-(trifluoromethyl)imidazol-2-yl]phenyl]methyl]pyrrolo[3,2-d]pyrimidine]	30 to 100	< 100	≥ 10000	< 100
COC(c1ccc(-c2nc(C(F)(F)F)cn2C)cc1)c1c[nH]c2cnc(-c3ccccc3C(C)C)nc12 (centres unmarked) [Compound 73, 2-(2-isopropylphenyl)-7-[methoxy-[4-[1-methyl-4-(trifluoromethyl)imidazol-2-yl]phenyl]methyl]-5H-pyrrolo[3,2-d]pyrimidine]	100 to 10000	250 to 10000	250 to 10000	100 to 250
CC(C)Oc1ncnc(C2CC2)c1-c1ncc2[nH]nc(Cc3ccc(-c4nc(C(F)(F)F)cn4C)cc3)c2n1 [Compound 102]	< 30	100 to 250	≥ 10000	100 to 250
C[C@@H](Oc1ncccc1-c1ncc2[nH]cc(Cc3ccc(-c4nc(C(F)(F)F)cn4C)cc3)c2n1)C(F)(F)F (single isomer, unassigned) [Compound 21]	< 30	< 100	250 to 10000	< 100
CC(C)c1ccccc1-c1ncc2[nH]cc([C@@H](C)c3ccc(-c4nc(C(F)(F)F)cn4C)cc3)c2n1 (single isomer, unassigned) [Compound 82]	< 30	< 100	250 to 10000	< 100
[2H]C([2H])([2H])n1nc(Cc2ccc(-c3nc(C(F)(F)F)cn3C)cc2)c2nc(-c3c(OC)ncnc3C3CC3)ncc21 [Compound 143, 5-(4-cyclopropyl-6-methoxy-pyrimidin-5-yl)-3-[[4-[1-methyl-4-(trifluoromethyl)imidazol-2-yl]phenyl]methyl]-1-(trideuteriomethyl)pyrazolo[4,3-d]pyrimidine]	< 30	< 100	≥ 10000	< 100
[2H]C([2H])([2H])Oc1ncnc(C2CC2)c1-c1ncc2[nH]cc(Cc3ccc(-c4nc(C(F)(F)F)cn4C)cc3)c2n1 [Compound 204, 2-[4-cyclopropyl-6-(trideuteriomethoxy)pyrimidin-5-yl]-7-[[4-[1-methyl-4-(trifluoromethyl)imidazol-2-yl]phenyl]methyl]-5H-pyrrolo[3,2-d]pyrimidine]	< 30	< 100	≥ 10000	< 100
COc1ncnc(C2CC2)c1-c1ncc2[nH]cc(Cc3ccc(-c4nc(C(F)(F)F)cn4C4CC4)cc3)c2n1 [Compound 81, 2-(4-cyclopropyl-6-methoxy-pyrimidin-5-yl)-7-[[4-[1-cyclopropyl-4-(trifluoromethyl)imidazol-2-yl]phenyl]methyl]-5H-pyrrolo[3,2-d]pyrimidine]	< 30	< 100	250 to 10000	< 100
COc1ncnc(C2(F)CC2)c1-c1ncc2[nH]cc(Cc3ccc(-c4nc(C(F)(F)F)cn4C)cc3)c2n1 [Compound 87]	< 30	< 100	≥ 10000	< 100
COc1cccc(OC)c1-c1ncc2[nH]cc(Cc3ccc(-c4nc(C(F)(F)F)cn4C)cc3)c2n1 [Compound 194]	30 to 100	100 to 250	≥ 10000	250 to 10000
Cn1cc(C(F)(F)F)nc1-c1ccc(Cc2n[nH]c3cnc(-c4c(C5CC5)ccnc4C4CC4)nc23)cc1 [Compound 174]	< 30	100 to 250	≥ 10000	100 to 250
CC(C)c1ccccc1-c1cc2c(Oc3ccc(-c4nc(C(F)(F)F)cn4C)cc3)c[nH]c2cn1 [Compound 14, 5-(2-isopropylphenyl)-3-[4-[1-methyl-4-(trifluoromethyl)imidazol-2-yl]phenoxy]-1H-pyrrolo[2,3-c]pyridine]	< 30	< 100	≥ 10000	< 100
COc1ncnc(C2CC2)c1-c1ncc2nn(CC(F)(F)F)c(Cc3ccc(-c4nc(C(F)(F)F)cn4C)cc3)c2n1 [Compound 131, 5-(4-cyclopropyl-6-methoxy-pyrimidin-5-yl)-3-[[4-[1-methyl-4-(trifluoromethyl)imidazol-2-yl]phenyl]methyl]-2-(2,2,2-trifluoroethyl)pyrazolo[4,3-d]pyrimidine]	100 to 10000	< 100	≥ 10000	< 100
COc1ncnc(C2CC2)c1-c1ncc2c(n1)c(Cc1ccc(-c3nc(C(F)(F)F)cn3C)cc1)cn2CC(F)(F)F [Compound 125, 2-(4-cyclopropyl-6-methoxy-pyrimidin-5-yl)-7-[[4-[1-methyl-4-(trifluoromethyl)imidazol-2-yl]phenyl]methyl]-5-(2,2,2-trifluoroethyl)pyrrolo[3,2-d]pyrimidine]	< 30	< 100	250 to 10000	< 100
Cn1cc(C(F)(F)F)nc1-c1ccc(Cc2n[nH]c3cnc(-c4c(OC(F)F)ncnc4C4CC4)nc23)cc1 [Compound 185, 5-[4-cyclopropyl-6-(difluoromethoxy)pyrimidin-5-yl]-3-[[4-[1-methyl-4-(trifluoromethyl)imidazol-2-yl]phenyl]methyl]-1H-pyrazolo[4,3-d]pyrimidine]	< 30	< 100	≥ 10000	< 100
CC(C)c1ccccc1-c1cc2c(Nc3ccc(-c4nc(C(F)(F)F)cn4C)cc3)c[nH]c2cn1 [Compound 17]	100 to 10000	250 to 10000	250 to 10000	< 100
